Measurements from publication PMC3236199, “Development of Derivatives of 3, 3′-Diindolylmethane as Potent Leishmania donovani Bi-Subunit Topoisomerase IB Poisons” (PLoS ONE, 2011).

Assays:
[1] = test system: L. donovani topoisomerase I; assay: Immunoband depletion assay, topoisomerase I; type: cell-based, Leishmania donovani; conditions: 20 µM, 6 h incubation, promastigotes
Method: Leishmania cells (3×10^7) were cultured in absence and presence of the drugs. Nuclear fractions were isolated as described. Briefly, cells were suspended in hypotonic buffer (10 mM Tris-HCl, pH 7.5, 1 mM EDTA, 0.1 mM EGTA, 1 mM PMSF, 1 mM benzamidine hydrochloride and 5 mM DTT) and homogenized. The homogenate was centrifuged for 10 min at 10,000 g. The pellets were washed and used as the source of nuclear fraction. Thereafter, the nuclear fractions were lysed with 1% SDS and subjected to SDS-PAGE (10%). The proteins were electrophoretically transferred to nitrocellulose membranes and immumobloting of immobilized proteins were carried out using a rabbit polyclonal antibody raised against LdTOP1S for topoisomerase I and ATPase domain of L. donovani topoisomerase II [8].
We have reported earlier that DIM induces topoisomerase I and not topoisomerase II-mediated cleavable complex formation in L. donovani. To investigate the ability of DIM derivatives to induce in vivo covalent complex formation between topoisomerase I and DNA in the Leishmania parasites we performed the immunoband depletion experiments with L. donovani promastigotes. Nuclear fractions were prepared from untreated as well as drug-treated promastigotes and subjected to SDS-PAGE. If topoisomerase I can form a covalent complex with genomic DNA inside the cells, then topoisomerase I-DNA cleavable complex cannot enter into the gel. […] The presence of topoisomerase I was detected by immunoblotting as described in ‘Materials and Methods’. It was observed that the immunoband of topoisomerase I disappeared in presence of 20 µM of DIM, DPDIM, DMDIM and DMODIM for 6 h incubation respectively (lanes 2–5). […] It should be mentioned here that topoisomerase I of Leishmania is a heterodimer and the catalytic site (SKXXY) is present in the small subunit of enzyme (LdTOP1S), which is involved in the formation of topoisomerase I-DNA covalent complex. So we have used the antibody raised against the small subunit of L. donovani topoisomerase I to study the immunoband depletion assay.
Figure 6 DIM-derivatives induce in vivo formation of topoisomerase-DNA cleavable complex within the cells. Stabilization of topoisomerase-I mediated cleavable complex was determined by immunoband depletion assay. Top panel: Immunoband depletion of L. donovani topoisomerase I, using an antibody raised against […]. Leishmanial cells were treated with 0.2% DMSO alone (lane 1), 20 µM each of DIM (lane 2), DPDIM (lane 3), DMDIM (lane 4) and DMODIM (lane 5) respectively. Lanes 6–9, preincubation with 20 µM DHBA before treatment with DIM, DPDIM, DMDIM and DMODIM respectively. Bottom panel: β-tubulin loading control.

[2] = target: CT DNA; assay: Spectrofluorometric binding assay (fluorescence quenching); conditions: for Kd: CT DNA 10 to 200 µM, 25°C, Scatchard analysis, read-out: dissociation constant (KD)
Method: Fluorescence titration was measured using Perkin Elmer, LS55, and Luminescence spectrometer. The intrinsic binding of DIM-derivatives to DNA was performed separately by fluorescence measurements at an excitation wavelength of 335 nm, 265 nm and 338 nm and emission range of 350 to 450 nm, 300 to 450 nm and 380 to 540 nm for DPDIM, DMDIM and DMODIM, respectively. Excitation and emission slit widths were 5 nm and 7.5 nm; 5 nm and 15 nm; and 5 nm and 15 nm for DPDIM, DMDIM and DMODIM, respectively. Background emission (<2%) was corrected by subtraction of spectra of blank buffer, DNA plus sample buffer and compounds plus sample buffer, respectively. Spectral titration was performed with DIM derivatives at 25°C in fluorescence buffer (20 mM Tris-HCL, pH 7.5, 50 mM NaCl and 10 mM MgCl2). CT DNA was added in increasing concentrations (10 to 200 µM), which are indicated in the legend. All the assays were performed in duplicate, titration points are corrected as described above and binding constants for DIM DNA-compound interaction were determined according to following equation: [drawing 2] (Eq–1) where ΔF = Fx−Fo, Fx and Fo representing the florescence intensity of DIM derivatives in the presence or absence of the added total DNA (St), respectively. ΔFmax is the maximum change in the fluorescence intensity. The intercept of the plot on the 1/F axis corresponding to 1/St = 0 measures the 1/Fmax, while the slope gives the estimation of the affinity constant (Ka). The dissociation constant KD = 1/Ka.
Therefore, it was of interest to determine whether DIM derivatives could interact with DNA. Fluorescence quenching assay was performed to determine the interaction between the derivatives of DIM and DNA at different concentrations of DNA (10 to 200 µM). DPDIM has fluorescence emission maximum (λem ^max) at the wavelength of 390 nm with a λex of 335 nm, whereas DMDIM has fluorescence emission maximum at a wavelength of 379 nm with a λex of 265 nm and DMODIM has fluorescence emission maximum at a wavelength of 450 nm with a λex of 338 nm. The excitation and emission slit widths were set at 5 nm and 7.5 nm for DPDIM, 5 nm and 15 nm for DMDIM; and 5 nm and 15 nm for DMODIM. Appropriate blanks corresponding to the buffer were subtracted to correct the background fluorescence. The fluorescence intensity decreases by increasing the concentration of DNA due to quenching reaction. Addition of DNA causes a slight shift of the maximum peak (λ shift) from 390 nm to 386 nm for DPDIM and from 379 nm to 374 nm for DMDIM with a concomitant decrease in fluorescence intensity (Fig. 7A and B). There is no λ shift for DMODIM (Fig. 7C). A progressive change in the fluorescence spectra of three DIM-derivatives on addition of different concentrations of DNA indicated an association between them.
Figure 7 Fluorescence quenching study of DIM derivatives-DNA interaction. (A) CT DNA concentration-dependently quenched DPDIM fluorescence at 390 nm. (B) CT DNA concentration-dependently quenched DMDIM fluorescence at 379 nm. (C) CT DNA concentration-dependently quenched DMODIM fluorescence at 450 nm. The arrow of each figure indicates the change in the emission spectra of DPDIM, DMDIM and DMODIM respectively on addition of CT DNA.

Cc1[nH]c2ccccc2c1Cc1c(C)[nH]c2ccccc12 [DMDIM, 2,2′-dimethyl 3,3′-diindolyl methane]
immunoband of topoisomerase I [1]: disappeared
Kd [2]: 63 µM

COc1ccc2[nH]cc(Cc3c[nH]c4ccc(OC)cc34)c2c1 [DMODIM, 5,5′-dimethoxy 3,3′-diindolyl methane]
immunoband of topoisomerase I [1]: disappeared
Kd [2]: 48 µM
affinity to DNA less compared to DIM ([2]; versus DIM): ~2 fold

c1ccc2c(Cc3c[nH]c4ccccc34)c[nH]c2c1 [DIM, 3, 3′-diindolyl methane, reference compound]
immunoband of topoisomerase I [1]: disappeared

c1ccc(-c2[nH]c3ccccc3c2Cc2c(-c3ccccc3)[nH]c3ccccc23)cc1 [DPDIM, 2,2′-diphenyl 3,3′-diindolyl methane]
immunoband of topoisomerase I [1]: disappeared
Kd [2]: 11 µM
affinity to DNA greater compared to DIM ([2]; versus DIM mother compound): 2 fold
